Experimental data taken from US20230183228A1, “SUBSTITUTED PYRAZOLYL COMPOUNDS AND METHODS OF USE THEREOF” (Chinook Therapeutics Canada, Inc., priority 2020, published 2023).
pIC50: −log10 of the molar value. Marks after values point to notes of the source that are not given here.

What was measured:
[1] = molecular target: T1, human recombinant C-terminal His-tagged LDHA (Homo sapiens, UniProt P00338); experiment: Human LDHA enzyme assay; format: biochemical; settings: 50 μM pyruvate, 50 μM NADH, no HSA
T1 construct: His (C)
Protocol: (§1) Compounds were dissolved in DMSO and preincubated with human recombinant C-terminal His-tagged LDHA (0.070 μg/mL) for 10 min at room temperature in assay buffer consisting 50 mM Tris, pH 7.5 and 100 mM NaCl in black walled, clear bottom, non-binding 96-well plates. Equal volumes of substrate solution containing 100 μM of pyruvate and 100 μM of NADH in assay buffer was added to each well (final concentration 0.035 μg/mL enzyme, 50 μM pyruvate, 50 μM NADH, and 1% DMSO). For human serum albumin (HSA) shift assay, the compounds were preincubated with the enzyme in assay buffer containing 20% HSA before substrate addition (final concentration 10% HSA). The reaction was monitored at 340 nm on a plate reader (Molecular Devices) in kinetic mode for 15 min. The rate of the reaction was determined by plotting absorbance vs time.

[2] = molecular target: T1, human recombinant C-terminal His-tagged LDHA; experiment: Human LDHA enzyme assay, human serum albumin (HSA) shift; format: biochemical; settings: final concentration 10% HSA
Protocol: as §1

[3] = tested on: fresh primary mouse hepatocytes; experiment: Primary mouse hepatocyte assay (lactate production); format: cell-based
Protocol: Compounds were evaluated in an ex vivo assay consisting of fresh primary mouse hepatocytes. Hepatocytes were isolated from wild type mice (C57BL/6NCrl from Charles River Labs) using a two-step collagenase perfusion technique which involves a sequential perfusion of anesthetized mice with Hanks' balanced salt solution and collagenase. Following isolation, viable wild type hepatocytes (0.1 M cells/well) were incubated with test compound in presence of pyruvate and compound potency was evaluated by measuring the lactate produced by the cells using liquid chromatography coupled to mass spectrometry. Chromatographic separation was achieved on an XDB-C18 4.6×50 mm column (Agilent, Cat #927975-902) at a flow rate of 1 mL/min Mobile phase A consisted of 0.1% formic acid in water and mobile phase B consisted of acetonitrile. A gradient program was initiated starting at 5% B which was held for 1 minutes, then ramped from 5% to 95% B over 1 minute. After holding at 95% B for 1 minute, the program changed back to 5% B. The column was equilibrated with 5% B for […] before the next injection. The mass spectrometer was operated in negative mode with electrospray ionization. The following transition along with their collision energy (CE) were used: 89→43 (CE: −16 V) for lactate and 92→45 (CE: −16 V) for ^13C3-Lactate (internal standard).

[4] = Liver and plasma concentrations in c57/bl6 mice; format: in vivo; settings: 20 mg/kg PO
Protocol: [The procedure below names another organism; the source says it served here with some conditions changed.] Plasma and liver (target organ) concentrations of test compounds were determined in rats following a single per os (PO) administration of the test compounds. Male Sprague Dawley rats (6-8 weeks of age, Charles River Labs) were fasted overnight and a single dose of test compounds (10 mg/kg; as a suspension in 0.5% methyl cellulose) was administered by PO gavage. Rats were then sacrificed at 4 and 24 h after administration of the test compounds, and plasma and liver tissue samples were collected. Liver tissue samples were homogenized in 5 volumes of water:acetonitrile (50/50; v/v) mixture using a bead mill homogenizer. Plasma and liver homogenate samples were processed by protein precipitation using acetonitrile and the concentrations of the test compounds were determined by liquid chromatography-tandem mass spectrometry (SciEx triple quad 5500+ with Exion UPLC).
Liver and plasma exposures at the 4 h and 24 h timepoints for the various compounds are described in Table 5 below. Measured compound concentrations are as follows: ++++>10 μM; 10 μM≥+++>5 μM; 5 μM≥++>1 μM; 1 μM≥+>0.25 μM; and 0.25 μM≥−.

PH1 patients = settings: cited from earlier work

Compound	pIC50 [1]	pIC50 [2]	pIC50 ([3]; 0.1 M cells/well)	Measured Compound Concentrations Liver - 4 h [4]	Measured Compound Concentrations Liver - 24 h [4]	Measured Compound Concentrations Plasma - 4 h [4]	Measured Compound Concentrations Plasma - 24 h [4]	pIC50 ([3]; Run at 0.4M cells/well concentration of hepatocytes)	lowering of urinary oxalate (PH1 patients)
NS(=O)(=O)c1ccc(Cc2c(-c3ccc(F)cc3)nn(-c3nc(C(=O)O)cs3)c2CC2CC2)cc1Cl [Example 10, 2-(4-(3-Chloro-4-sulfamoylbenzyl)-5-(cyclopropylmethyl)-3-(4-fluorophenyl)-1H-pyrazol-1-yl)thiazole-4-carboxylic acid]	> 9.00	7.00 to 8.00	6.60 to 7.00	+++* (10 μM≥+++>5 μM)	−* (0.25 μM≥−)	−* (0.25 μM≥−)	−* (0.25 μM≥−)	–	–
NS(=O)(=O)c1ccc(Cc2c(-c3ccc(F)c(OC(F)F)c3)nn(-c3nc(C(=O)O)cs3)c2CC2CC2)cc1F [Example 13, 2-(5-(cyclopropylmethyl)-3-(3-(difluoromethoxy)-4-fluorophenyl)-4-(3-fluoro-4-sulfamoylbenzyl)-1H-pyrazol-1-yl)thiazole-4-carboxylic acid]	> 9.00	8.00 to 9.00	–	++* (5 μM≥++>1 μM)	−* (0.25 μM≥−)	−* (0.25 μM≥−)	−* (0.25 μM≥−)	6.00 to 6.60	–
Cc1ncc(CO)c(CO)c1O [Pyridoxine]	–	–	–	–	–	–	–	–	approximately 30%
